Reference: US20240025862A1, “SUBSTITUTED N-PHENYLURACILS AND SALTS THEREOF, AND USE THEREOF AS HERBICIDAL ACTIVE SUBSTANCES” (Bayer Aktiengesellschaft, priority 2020, published 2024)

Legend:
Assay type in all cases: in vivo
[1] = test system: Abutilon theophrasti (ABUTH); test: Post-emergence herbicidal action, greenhouse pot test; settings: rated visually after about 3 weeks vs untreated controls, 100% = plants have died
In short: (§1)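 Activity was scored by eye about 3 weeks after treatment against untreated plants, where 100% means dead plants and 0% means no difference. Plants at the one-leaf stage received a foliar spray of WP or EC formulations in water plus 0.5% additive (600 l/ha, up to 20 g/ha). Plants were grown in sandy loam pots in a greenhouse for 2–3 weeks before spraying.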

[2] = test system: Amaranthus retroflexus (AMARE); test: as above; settings: rated visually after about 3 weeks vs untreated controls, 100% = plants have died
In short: as §1

[3] = test system: Pharbitis purpurea (PHBPU); test: as above
In short: as §1

[4] = test system: Polygonum convolvulus (POLCO); test: as above
In short: as §1

Stellaria media (STEME) = test: as above
In short: as §1

Veronica persica (VERPE) = test: as above
In short: as §1

Viola tricolor (VIOTR) = test: as above
In short: as §1

[5] = test system: Alopecurus myosuroides (ALOMY); test: Post-emergence herbicidal action, greenhouse pot test (also comparative test C); settings: rated visually after about 3 weeks vs untreated controls, 100% = plants have died
In short: (§2)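 Greenhouse pot plants in sandy loam were sprayed post-emergence at the one-leaf stage (2–3 weeks after sowing) with WP or EC formulations plus 0.5% additive at 600 l/ha water. Activity was rated visually after about 3 weeks versus untreated controls (100% = dead, 0% = like control); rates were 20 g/ha or less, and 5 g/ha or less in the comparative test.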

[6] = test system: Echinochloa crus-galli (ECHCG); test: as above
In short: as §2

[7] = test system: Matricaria inodora (MATIN); test: as above
In short: as §2

Setaria viridis (SETVI) = test: as above; settings: for Post-emergence action against SETVI: 20 g/ha
In short: as §2

Glycine max (GLXMA) = test: Post-emergence crop plant compatibility, greenhouse pot test
In short: (§3)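 Greenhouse pot test; post-emergence foliar spray at one-leaf stage, WP or EC in water + 0.5% additive, 600 l/ha. Visual rating after ~3 wk, % relative to untreated (0–100%).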

[8] = test system: Triticum aestivum (TRZAS); test: as above; settings: 1.25 g/ha, vs untreated controls
In short: as §3

Zea mays (ZEAMX) = test: as above; settings: vs untreated controls
In short: as §3

Oryza sativa (ORYSA) = test: Post-emergence crop plant compatibility, greenhouse pot test (also comparative test C); settings: for Post-emergence action against ORYSA (crop plant compatibility): vs untreated controls
In short: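 Visual damage versus untreated plants (0% = like control, 100% = plants died) was scored about 3 weeks after a post-emergence spray in greenhouse pots. Treatment: one-leaf stage, WP or EC in water at 600 l/ha with 0.5% additive; a/b/c mark different dosages on the same crop.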

Avena fatua (AVEFA) = test: Post-emergence herbicidal action, greenhouse pot test; settings: rated visually after about 3 weeks vs untreated controls, 100% = plants have died
In short: as §1

| Structure (SMILES) | Post-emergence action at 1.25 g/ha against ABUTH in % [1] [%] | Post-emergence action at 5 g/ha against ABUTH in % [1] [%] | Post-emergence action at 20 g/ha against ABUTH in % [1] [%] | Post-emergence action at 1.25 g/ha against AMARE in % [2] [%] | Post-emergence action at 5 g/ha against AMARE in % [2] [%] | Post-emergence action at 20 g/ha against AMARE in % [2] [%] | Post-emergence action against PHBPU in % ([3]; dosage 1.25 g/ha) [%] | Post-emergence action against PHBPU in % ([3]; dosage 5 g/ha) [%] | Post-emergence action against PHBPU in % ([3]; dosage 20 g/ha) [%] | Post-emergence action against POLCO in % ([4]; dosage 20 g/ha) [%] | Post-emergence action against VERPE (Veronica persica (VERPE); 1.25 g/ha) [%] | Post-emergence action against VERPE (Veronica persica (VERPE); 5 g/ha) [%] | Post-emergence action against VERPE (Veronica persica (VERPE); 20 g/ha) [%] | Post-emergence action against VIOTR (Viola tricolor (VIOTR); 1.25 g/ha) [%] | Post-emergence action against VIOTR (Viola tricolor (VIOTR); 5 g/ha) [%] | Post-emergence action against VIOTR (Viola tricolor (VIOTR); 20 g/ha) [%] | Post-emergence action at 20 g/ha against ALOMY in % [5] [%] | Post-emergence action against ECHCG in % ([6]; dosage 20 g/ha) [%] | Post-emergence action against MATIN in % ([7]; dosage 5 g/ha) [%] | Post-emergence action against MATIN in % ([7]; dosage 20 g/ha) [%] | other results |
| --- | --- | --- | --- | --- | --- | --- | --- | --- | --- | --- | --- | --- | --- | --- | --- | --- | --- | --- | --- | --- | --- |
| Cn1c(C(F)(F)F)cc(=O)n(-c2cc(Sc3ccccc3OCC(=O)OCC3CCOC3)c(Cl)cc2F)c1=O (racemic) [I.1-72] | 100 | 100 | 100 | 80 | 100 | 100 | 80 | 100 | 100 | 100 | 100 | 100 | 100 | 100 | 100 | 100 | 80 | 100 | 90 | 100 | Post-emergence action against POLCO in % ([4]; dosage 1.25 g/ha): 80%; Post-emergence action against POLCO in % ([4]; dosage 5 g/ha): 100%; Post-emergence action against STEME (Stellaria media (STEME); 5 g/ha): 100%; Post-emergence action against STEME (Stellaria media (STEME); 20 g/ha): 100%; Post-emergence action against SETVI (Setaria viridis (SETVI)): 100%; Post-emergence action against SETVI in % (Setaria viridis (SETVI); dosage 1.25 g/ha): 100%; Post-emergence action against SETVI in % (Setaria viridis (SETVI); dosage 5 g/ha): 100%; Post-emergence action against GLXMA in % (Glycine max (GLXMA); 1.25 g/ha): 10%; Post-emergence action against GLXMA in % (Glycine max (GLXMA); 5 g/ha): 20%; Post-emergence action against TRZAS (crop plant compatibility) [8]: 20%; Post-emergence action against ZEAMX (crop plant compatibility) (Zea mays (ZEAMX); 1.25 g/ha): 10%; Post-emergence action against ZEAMX (crop plant compatibility) (Zea mays (ZEAMX); 5 g/ha): 20%; Post-emergence action against ORYSA (crop plant compatibility) (Oryza sativa (ORYSA); 1.25 g/ha): 10%; Post-emergence action against ORYSA (crop plant compatibility) (Oryza sativa (ORYSA); 5 g/ha): 20% |
| Cn1c(C(F)(F)F)cc(=O)n(-c2cc(Oc3ccccc3OCC(=O)OCc3ccccn3)c(C#N)cc2F)c1=O [I.9-276] | 100 | 100 | 100 | 100 | 100 | 100 | 100 | 100 | 100 | 100 | 80 | 100 | 100 | 100 | 100 | 100 | 100 | 100 | 100 | 100 | Post-emergence action at 5 g/ha against AVEFA in % (Avena fatua (AVEFA); 5 g/ha): 80%; Post-emergence action at 20 g/ha against AVEFA in % (Avena fatua (AVEFA); 20 g/ha): 90%; Post-emergence action at 5 g/ha against ALOMY in % ([5]; 5 g/ha): 100%; Post-emergence action against ECHCG in % ([6]; dosage 5 g/ha): 100%; Post-emergence action against SETVI (Setaria viridis (SETVI)): 100%; Post-emergence action against SETVI in % (Setaria viridis (SETVI); dosage 1.25 g/ha): 100%; Post-emergence action against SETVI in % (Setaria viridis (SETVI); dosage 5 g/ha): 100%; Post-emergence action against GLXMA in % (Glycine max (GLXMA); 1.25 g/ha): 0%; Post-emergence action against TRZAS (crop plant compatibility) [8]: 0%; Post-emergence action against ZEAMX (crop plant compatibility) (Zea mays (ZEAMX); 1.25 g/ha): 0%; Post-emergence action against ZEAMX (crop plant compatibility) (Zea mays (ZEAMX); 5 g/ha): 0%; Post-emergence action against ZEAMX (crop plant compatibility) (Zea mays (ZEAMX); 20 g/ha): 20%; Post-emergence action against ORYSA (crop plant compatibility) (Oryza sativa (ORYSA); 1.25 g/ha): 0%; Post-emergence action against ORYSA (crop plant compatibility) (Oryza sativa (ORYSA); 5 g/ha): 0%; Post-emergence action against ORYSA in % (Oryza sativa (ORYSA); 20 g/ha, crop plant compatibility): 0% |
